The values below come from ChEMBL document CHEMBL4382288, “Synthesis of 12-O-Mono- and Diglycosyl-oxystearates, a New Class of Agonists for the C-type Lectin Receptor Mincle” (ACS Med Chem Lett, 2019).

In experiment [1] the target is T1, C-type lectin domain family 4 member E (Homo sapiens) (UniProt Q9ULY5).
T1 sequence (whole entry): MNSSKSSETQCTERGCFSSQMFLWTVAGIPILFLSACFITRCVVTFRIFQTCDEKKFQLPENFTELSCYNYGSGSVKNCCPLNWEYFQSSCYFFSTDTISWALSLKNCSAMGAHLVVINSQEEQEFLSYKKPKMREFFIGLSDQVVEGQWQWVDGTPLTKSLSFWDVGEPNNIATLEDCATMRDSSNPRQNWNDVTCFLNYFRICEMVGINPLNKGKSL
In words: Agonist activity at human mincle coupled with FcRgamma expressed in 2B4-NFAT-GFP reporter cells at 3 nmol/well after 16 hrs by flow cytometric analysis. The format is cell-based. A general note: Flow cytometry measures light scatter and fluorescence of single cells or particles in a stream.

For experiment [2], the target named is T2, C-type lectin domain family 4 member E (Mus musculus) (UniProt Q9R0Q8).
T2 sequence (whole entry): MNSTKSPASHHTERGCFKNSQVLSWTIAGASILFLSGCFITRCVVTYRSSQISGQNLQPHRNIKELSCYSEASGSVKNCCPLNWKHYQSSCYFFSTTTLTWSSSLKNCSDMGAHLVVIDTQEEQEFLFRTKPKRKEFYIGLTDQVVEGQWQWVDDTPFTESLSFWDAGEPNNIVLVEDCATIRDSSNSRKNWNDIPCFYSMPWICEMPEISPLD
Description: Agonist activity at mouse mincle coupled with FcRgamma expressed in 2B4-NFAT-GFP reporter cells at 3 nmol/well after 16 hrs by flow cytometric analysis. The class given is cell-based.

Activity calls are given as the source filed them. The rule behind the calls is not given here.

`CCCCCCC(CCCCCCCCCCC(=O)OC)O[C@@H]1O[C@H](CO)[C@@H](O[C@H]2O[C@H](CO)[C@@H](O)[C@H](O)[C@H]2O)[C@H](O)[C@H]1O` (some centres undefined): the outcome in experiment [1] and in experiment [2] was inactive.

Turning to `CCCCCCC(CCCCCCCCCCC(=O)OC)O[C@@H]1O[C@H](CO[C@@H]2O[C@H](CO)[C@@H](O)[C@H](O)[C@H]2O)[C@@H](O)[C@H](O)[C@H]1O` (some centres undefined), the outcome in experiment [2] was Active.

Take `CCCCCCC(CCCCCCCCCCC(=O)OC)O[C@H]1O[C@H](CO)[C@@H](O)[C@H](O)[C@@H]1O` (some centres undefined): the result in experiment [1] and in experiment [2] was inactive.

As to `CCCCCCC(CCCCCCCCCCC(=O)OC)O[C@H]1O[C@H](CO)[C@@H](O)[C@H](O)[C@@H]1O[C@@H]1O[C@H](CO)[C@@H](O)[C@H](O)[C@@H]1O` (some centres undefined), the outcome in experiment [1] and in experiment [2] was Active.

Regarding `CCCCCCC(CCCCCCCCCCC(=O)OC)O[C@H]1O[C@H](CO)[C@@H](O)[C@H](O)[C@@H]1O[C@H]1O[C@H](CO)[C@@H](O)[C@H](O)[C@@H]1O` (some centres undefined), the outcome in experiment [1] and in experiment [2] was Active.

For `CCCCCCC(CCCCCCCCCCC(=O)OC)O[C@@H]1O[C@H](CO)[C@H](O)[C@H](O)[C@H]1O` (some centres undefined), the result in experiment [1] and in experiment [2] was inactive.

As for `CCCCCCC(CCCCCCCCCCC(=O)OC)O[C@@H]1O[C@H](CO)[C@@H](O)[C@H](O)[C@@H]1O` (some centres undefined), the result in experiment [1] and in experiment [2] was inactive.

On to `CCCCCCC(CCCCCCCCCCC(=O)OC)O[C@@H]1O[C@H](CO[C@H]2O[C@H](CO)[C@@H](O)[C@H](O)[C@H]2O)[C@@H](O)[C@H](O)[C@H]1O` (some centres undefined), for which the outcome in experiment [1] and in experiment [2] was inactive.

Regarding `CCCCCCC(CCCCCCCCCCC(=O)OC)O[C@H]1O[C@H](CO)[C@H](O)[C@H](O)[C@H]1O` (some centres undefined), the outcome in experiment [1] and in experiment [2] was inactive.

Turning to `CCCCCCC(CCCCCCCCCCC(=O)OC)O[C@H]1O[C@H](CO)[C@@H](O)[C@H](O)[C@H]1O` (some centres undefined), the result in experiment [1] and in experiment [2] was inactive.

`CCCCCCC(CCCCCCCCCCC(=O)OC)O[C@@H]1O[C@H](CO)[C@@H](O)[C@H](O)[C@@H]1O[C@H]1O[C@H](CO)[C@@H](O)[C@H](O)[C@@H]1O` (some centres undefined): the result in experiment [1] and in experiment [2] was Active.

For the molecule `CCCCCCC(CCCCCCCCCCC(=O)OC)O[C@@H]1O[C@H](CO)[C@@H](O)[C@H](O)[C@H]1O` (some centres undefined), the result in experiment [1] and in experiment [2] was inactive.

For the molecule `CCCCCCC(CCCCCCCCCCC(=O)OC)O[C@@H]1O[C@H](CO)[C@@H](O[C@@H]2O[C@H](CO)[C@@H](O)[C@H](O)[C@H]2O)[C@H](O)[C@H]1O` (some centres undefined), the result in experiment [1] and in experiment [2] was inactive.

With `CCCCCCC(CCCCCCCCCCC(=O)OC)O[C@@H]1O[C@H](CO)[C@@H](O)[C@H](O)[C@@H]1O[C@@H]1O[C@H](CO)[C@@H](O)[C@H](O)[C@@H]1O` (some centres undefined), the result in experiment [1] and in experiment [2] was Active.

Turning to `CCCCCCC(CCCCCCCCCCC(=O)OC)O[C@@H]1O[C@H](CO[C@H]2O[C@H](CO)[C@H](O)[C@H](O)[C@H]2O)[C@@H](O)[C@H](O)[C@H]1O` (some centres undefined), the outcome in experiment [1] and in experiment [2] was inactive.
